We go through one compound from US5403840A, “Inclusion complexes of N-ethoxycarbonyl 1-3-morpholino-sydnonimine or salts formed with cyclodextrin-derivatives, preparation thereof and pharmaceutical compositions containing the same” (Chinoin Gyogyszer-Es Vegyeszeti Termekek Gyar Rt., priority 1990, dated 1995).

In brackets after ≈: the same amount, converted by molar mass.

The conditions of data set [1]: oral; cited from earlier work.
The conditions of data set [2]: 25° C.; cited from earlier work.
For data set [3] the following is noted: Molsidomin alone, no cyclodextrin; 37 °C; donor 1 and 2 mg/ml.
Procedure: Visking-type cellophane membrane (average pore diameter 24 angstroms) was used. Aqueous solutions of Molsidomin at a concentration of 1 and 2 mg/ml were put in the donor cell, while distilled water was placed in the receptor compartment of the membrane permeation cell apparatus. The solutions were stirred by magnetic stirrers and were kept at 37+1° C. At appropriate time intervals samples were pipetted from the receptor solutions and concentration of Molsidomin permeated from the donor cell was measured by UV-spectrophotometry. The test was repeated in the presence of different cyclodextrins at different concentrations in the donor cell compartment.
The conditions of data set [4]: pH value of 5-7; cited from earlier work.
For data set [5] the following is noted: compared to the organic nitrates; cited from earlier work.
For data set [6] the following is noted: percutaneous, cited from earlier work.
For another data set, the system named is angina pectoris. The following applies: cited from earlier work.
A short description of data set [7]: Membrane permeation test, dialysis profile of Molsidomin-β-CD granule. The format is physicochemical. The following applies: Molsidomin 1 mg/ml or equivalent granule, 100% diffusion = 0.33 mg/ml. As to the method: Visking-type cellophane membrane (average pore diameter 24 angstroms) was used. Aqueous solutions of Molsidomin at a concentration of 1 and 2 mg/ml were put in the donor cell, while distilled water was placed in the receptor compartment of the membrane permeation cell apparatus.
Dialysis profile of Molsidomin-β-CD granule was examined using the same permeation cell as described above.
Molsidomin at a concentration of 1 mg/ml and equivalent amount of complex granule were used in the experiment
100% diffusion corresponding to 0.33 mg/ml Molsidomin concentration in the receptor cell.

With `CCOC(=O)[N-]c1cn(N2CCOCC2)n[o+]1` [Molsidomin, N-ethoxycarbonyl-3-morpholino-sydnonimine], in data set [1], the “absorption along the whole Gi-tract” value is given as “fairly absorbed” and the bioavailability result is given as “satisfactory”. Besides, the solubility in water in data set [2] is 18 mg/mL (≈ 74.3 mM). In data set [3], the “Diffusion half life (T 50%) of Molsidomin” value stood at 1.0 h. Further, the stability in water entry in data set [4] was “stable”. Further, in data set [5], the habit forming result is on record as “does not become habit forming”, the headaches result is “rarely induces headaches which are also less severe” and the side-effects entry was “less side-effects”. In data set [6] (Molsidomin itself), the “bioavailability through the skin” value is on record as 4%; the “resorption through the skin” value is “resorbed slowly and to a small extent”. Moreover, the “resorption of Molsidomin relative to propylene-glycol” value in data set [6] was “of similar extent, and of similar quantity”. Further, the “duration of effect compared to the organic nitrates” value with angina pectoris (compared to the organic nitrates) is recorded as “more lasting”. For the same compound, the “duration of effect of oral preparation” value with angina pectoris (oral, 2 mg of the active ingredient) was 3 to 5 h. For the same compound, the “Concentration of Molsidomin in the receptor cell” value (from here on “Concentration of Molsidomin”) in data set [7] (1 hour) came out at 200 µg/mL. The “Concentration of Molsidomin” value in data set [7] (2 hours) was 290 µg/mL. The “Concentration of Molsidomin” value in data set [7] (3 hours) was found to be 320 µg/mL. The “Concentration of Molsidomin” value in data set [7] (4 hours) was found to be 340 µg/mL.
